The source made the active and inactive calls.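 How the source made its calls: active means compounds lowering the signal with a fitted AC50 at or below a set concentration limit; inconclusive means flat curve with 30 to 70% inhibition, or a poor fit; inactive means the rest.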
Biological target: Caspase recruitment domain-containing protein 9 (Homo sapiens) + E3 ubiquitin-protein ligase TRIM62 (Homo sapiens) (UniProt Q9H257+Q9BVG3)
Assay: CARD9/TRIM62 protein interaction inhibitors – cell lysate, HEK293FT lysates, Luminex bead readout, dose response (AID 1259338); on activity change, negative = inhibition: reference of the scale not given here
Settings: Luminex bead PPI, MFI

Caspase recruitment domain-containing protein 9 (Homo sapiens) + E3 ubiquitin-protein ligase TRIM62 (Homo sapiens), sequence (Q9BVG3 whole entry, looked up, the tested form may be a part): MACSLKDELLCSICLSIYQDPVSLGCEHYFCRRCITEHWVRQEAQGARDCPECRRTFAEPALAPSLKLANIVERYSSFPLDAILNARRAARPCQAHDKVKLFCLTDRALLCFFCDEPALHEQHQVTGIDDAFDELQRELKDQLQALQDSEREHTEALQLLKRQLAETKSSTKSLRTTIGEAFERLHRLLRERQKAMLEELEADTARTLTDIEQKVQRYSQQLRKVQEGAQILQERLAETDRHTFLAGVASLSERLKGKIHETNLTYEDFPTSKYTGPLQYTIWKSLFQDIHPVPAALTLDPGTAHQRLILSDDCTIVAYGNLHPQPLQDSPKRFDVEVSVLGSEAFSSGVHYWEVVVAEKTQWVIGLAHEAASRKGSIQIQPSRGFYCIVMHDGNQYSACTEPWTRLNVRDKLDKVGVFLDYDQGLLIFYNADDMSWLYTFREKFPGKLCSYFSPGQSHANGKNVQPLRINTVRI
Caspase recruitment domain-containing protein 9 (Homo sapiens) + E3 ubiquitin-protein ligase TRIM62 (Homo sapiens), sequence (Q9H257 whole entry, looked up, the tested form may be a part): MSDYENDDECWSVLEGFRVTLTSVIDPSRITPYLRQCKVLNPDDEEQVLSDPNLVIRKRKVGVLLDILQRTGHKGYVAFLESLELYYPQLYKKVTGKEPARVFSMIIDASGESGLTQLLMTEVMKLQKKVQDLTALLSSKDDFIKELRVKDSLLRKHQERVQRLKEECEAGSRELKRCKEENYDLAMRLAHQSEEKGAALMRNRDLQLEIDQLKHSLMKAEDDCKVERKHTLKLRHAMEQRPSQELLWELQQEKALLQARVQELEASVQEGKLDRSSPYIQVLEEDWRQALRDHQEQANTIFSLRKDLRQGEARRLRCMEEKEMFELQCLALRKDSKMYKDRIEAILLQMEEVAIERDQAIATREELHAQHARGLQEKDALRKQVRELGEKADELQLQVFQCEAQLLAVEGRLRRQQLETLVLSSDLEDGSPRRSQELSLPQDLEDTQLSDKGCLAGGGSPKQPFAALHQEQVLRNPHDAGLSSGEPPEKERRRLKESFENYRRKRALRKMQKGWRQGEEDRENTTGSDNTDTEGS

SMILES | activity change, negative = inhibition (at 80 µM (top of the series)) | AC50 | further results
C[C@H](CO)N1C[C@H](C)[C@@H](CN(C)C(=O)C2CCCCC2)OCCCC[C@H](C)Oc2ccc(NS(=O)(=O)c3ccc(F)cc3)cc2C1=O | inactive |  | 
O=C(CCn1cncn1)N1CCC(n2cc(-c3ccccn3)nn2)CC1 | inactive |  | 
COc1ccc(-c2ccc(CCC(=O)O)o2)cc1 | inactive |  | 
CCOC(=O)c1ccc(-c2ccc(C3CC(=O)Nc4cc5c(cc43)OCCO5)o2)cc1 (centres undefined) | inactive |  | 
COc1ccc(NC(=O)CN(C)C(=O)c2cc(-c3ccco3)nc3ccccc23)cc1 |  | 78.2 µM | 
O=C(Nc1nc(-c2ccco2)c(-c2ccco2)s1)c1ccco1 | inactive |  | 
O=C1c2ccccc2S(=O)(=O)N1Cc1cccc(S(=O)(=O)N2CCOCC2)c1 | inactive |  | 
Cc1ccc(N2C(=O)c3ccccc3C2C(=O)c2ccc(O)cc2O)cc1 (centres undefined) | inactive |  | 
O=C(Nc1ncccc1O)c1ccc(OCC2CCCO2)cc1 (centres undefined) | inactive |  | 
NC(=O)c1ccc(CN2C(=O)C3(CCNCC3)Nc3ccccc32)cc1 |  | > 160 µM (inactive) | 
Cc1ccc(-c2nc(C)sc2CC(=O)NCc2ccco2)cc1 | inactive |  | 
O=C(Nc1nc(-c2ccco2)c(-c2ccco2)s1)c1ccc(F)cc1F | inactive |  | 
O=C1C=C(c2ccccc2)Nc2ccccc2N1 |  | > 160 µM (inactive) | 
CN(C)C(CN=C1NS(=O)(=O)c2ccccc21)c1ccco1 (centres undefined) | inactive |  | 
NC(=O)C1(N2CCCCC2)CCN(c2ncc(NC(=O)c3ccccc3)cc2C(=O)O)CC1 |  | 3.25 µM | 
COc1ccc(S(=O)(=O)N2CCOCC2)cc1NC(=O)c1cccc(-n2cccc2)c1 |  | 77.6 µM | 
Cc1ccc2cc(CN(Cc3ccco3)S(C)(=O)=O)c(=O)[nH]c2c1 |  | > 160 µM (inactive) | 
Nc1c(C(=O)NCc2ccco2)c2nc3ccccc3nc2n1CCN1CCOCC1 |  | > 160 µM (inactive) | 
O=C(O)COCC(=O)NCc1ccco1 | inactive |  | 
O=C(NCc1ccco1)c1ccc(S(=O)(=O)N2CCOCC2)cc1 | inactive |  | 
Cc1noc(C)c1S(=O)(=O)Nc1ccc2c(c1)C(=O)N([C@H](C)CO)C[C@H](C)[C@@H](CN(C)C(=O)C1CCCCC1)OCCCC[C@H](C)O2 |  | > 160 µM (inactive) | 
Cc1ccc(S(=O)(=O)Nc2ccc3c(c2)C(=O)N([C@H](C)CO)C[C@H](C)[C@@H](CN(C)C(=O)C2CCCCC2)OCCCC[C@H](C)O3)cc1 |  | > 160 µM (inactive) | 
Cc1c(/C=C/c2nc3ccccc3c(=O)n2-c2ccccn2)c2ccccc2n1C | inactive |  | 
CCCc1oc(C(=O)O)cc1CN | inactive |  | 
CC(=O)c1cccc(OCC(=O)N(C)CC(=O)NCc2ccco2)c1 |  | 82.2 µM | 
O=C(NC1CC1)c1cc(-c2ccco2)nc2ccccc12 |  | > 160 µM (inactive) | 
O=S(=O)(Nc1nc2ccc(S(=O)(=O)N3CCCCC3)cc2s1)c1ccccc1 | inactive |  | 

SMILES | activity change, negative = inhibition (at 80 µM (top of the series)) | AC50 | further results
CC(=O)c1sc2nc(-c3ccco3)ccc2c1N | inactive |  | 
CS(=O)(=O)N1CCN(c2ccc([N+](=O)[O-])c(SCc3ccco3)c2)CC1 | inactive |  | 
COc1cc(N)c(Cc2nccc3cc(OC)c(OC)cc23)cc1OC | inactive |  | 
CCOC(=O)c1[nH]c(Cc2[nH]c(C(=O)OCC)c(C)c2C)c(C)c1C | inactive |  | 
COc1ccc(S(=O)(=O)Nc2ccc3c(c2)C(=O)N([C@H](C)CO)C[C@H](C)[C@@H](CN(C)C(=O)C2CCCCC2)OCCCC[C@H](C)O3)cc1 | inactive |  | 
COc1ccc(S(=O)(=O)Nc2ccc3c(c2)C(=O)N([C@H](C)CO)C[C@H](C)[C@@H](CN(C)CC2CCCCC2)OCCCC[C@H](C)O3)cc1 |  | > 160 µM (inactive) | 
Cc1occc1C(=O)NCc1cccc(CNC(=O)c2ccoc2C)c1 | inactive |  | 
Cc1sc2ncnc(SCc3ccco3)c2c1C | inactive |  | 
O=C(Nc1ccc2oc(-c3ccncc3)nc2c1)c1ccc2c(c1)OCO2 |  | 41.8 µM | 
O=C(NCCCN1CCOCC1)c1cc(-c2ccco2)nc2ccccc12 |  | 41.8 µM | 
O=C(COC(=O)c1ccc(F)cc1F)Nc1ncccn1 |  | 38.8 µM | 
COc1ccc(Nc2nc(-c3nnc(-c4ccc(F)cc4)o3)nc3ccccc23)cc1Cl | inactive |  | 
On1c(-c2ccco2)nc2c1CCc1nonc1-2 | inactive |  | 
O=C(NCCc1ccccc1)c1cc2cccnc2n(Cc2ccccc2)c1=O |  | > 160 µM (inactive) | 
O=C(CN1CCOC1=O)N1CCC2(CCC(=O)N(CCCn3ccnc3)C2)CC1 |  | > 160 µM (inactive) | 
Cc1cccc(Nc2nc(C(=O)Nc3cc(F)ccc3F)nc3ccccc23)c1 |  |  | activity change, negative = inhibition (at 38 µM (top of the series)): inactive
CC1CCN(c2nc(-c3ccco3)c3c(c2C#N)CC(C)(C)OC3)CC1 | inactive |  | 
Cc1ccc(Nc2nc(C(=O)Nc3ccc(Cl)cc3)nc3ccccc23)cc1 |  | 22.9 µM | 
O=C(CCCN1C(=O)NC2(CCCC2)C1=O)Nc1ccc(F)cc1 | inactive |  | 
Cc1ncnc(N2CCC(c3nccn3Cc3cccnc3)CC2)c1C |  | > 160 µM (inactive) | 
Cc1nc(C)c(C(=O)Nc2ncc([N+](=O)[O-])s2)o1 | inactive |  | 
CC(CCc1ccco1)N(C)S(=O)(=O)c1ccc2[nH]c(=O)ccc2c1 (centres undefined) | inactive |  | 
O=C(COC(=O)c1cc(-c2ccco2)nc2ccccc12)NCc1ccc2c(c1)OCO2 | inactive |  | 
CCOC(=O)/C=C/S(=O)(=O)c1ccc(NC(C)=O)cc1 | inactive |  | 
N#Cc1sc2nc(-c3ccccc3)cc(-c3ccco3)c2c1N | inactive |  | 
Cc1[nH]c2ccc(Cl)cc2c(=O)c1CN1CCCC1 | inactive |  | 
CCNc1ncc(C(=O)NCCc2nc3c(s2)CCCC3)cn1 | inactive |  | 

Reference: PubChem BioAssay AID1259338 (Broad Institute, 2017)
